Results reported in article PMC11311138, “Design of Promising Thiazoloindazole-Based Acetylcholinesterase Inhibitors Guided by Molecular Docking and Experimental Insights” (ACS Chemical Neuroscience, 2024).

Tests used:
equine serum BuChE = equine serum BuChE (Equus caballus, UniProt P81908); experiment: biochemical; settings: pH 8, 37 °C, triplicate
[1] = molecular target: Electrophorus electricus AChE (eeAChE) (Electrophorus electricus, UniProt O42275); experiment: biochemical; format: biochemical; settings: pH 8, 37 °C, triplicate
Chain of Electrophorus electricus AChE (eeAChE) (O42275 24-633): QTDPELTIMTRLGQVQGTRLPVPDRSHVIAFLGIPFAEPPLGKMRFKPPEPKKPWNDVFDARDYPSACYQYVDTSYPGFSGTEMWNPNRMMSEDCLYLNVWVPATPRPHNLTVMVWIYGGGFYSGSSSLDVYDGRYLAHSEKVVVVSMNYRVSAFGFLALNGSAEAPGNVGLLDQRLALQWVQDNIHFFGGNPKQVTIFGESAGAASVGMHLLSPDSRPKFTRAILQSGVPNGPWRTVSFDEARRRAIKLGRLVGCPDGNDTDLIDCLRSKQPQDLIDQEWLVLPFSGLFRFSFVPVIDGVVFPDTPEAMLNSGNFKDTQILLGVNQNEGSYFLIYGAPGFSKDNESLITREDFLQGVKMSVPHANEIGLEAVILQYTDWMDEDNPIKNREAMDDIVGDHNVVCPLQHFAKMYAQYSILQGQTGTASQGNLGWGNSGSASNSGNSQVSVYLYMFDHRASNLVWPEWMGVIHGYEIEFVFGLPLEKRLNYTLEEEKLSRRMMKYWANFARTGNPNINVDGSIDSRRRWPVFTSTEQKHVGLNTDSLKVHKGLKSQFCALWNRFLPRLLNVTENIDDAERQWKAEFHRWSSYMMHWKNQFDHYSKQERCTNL

Chain of equine serum BuChE (P81908 whole entry): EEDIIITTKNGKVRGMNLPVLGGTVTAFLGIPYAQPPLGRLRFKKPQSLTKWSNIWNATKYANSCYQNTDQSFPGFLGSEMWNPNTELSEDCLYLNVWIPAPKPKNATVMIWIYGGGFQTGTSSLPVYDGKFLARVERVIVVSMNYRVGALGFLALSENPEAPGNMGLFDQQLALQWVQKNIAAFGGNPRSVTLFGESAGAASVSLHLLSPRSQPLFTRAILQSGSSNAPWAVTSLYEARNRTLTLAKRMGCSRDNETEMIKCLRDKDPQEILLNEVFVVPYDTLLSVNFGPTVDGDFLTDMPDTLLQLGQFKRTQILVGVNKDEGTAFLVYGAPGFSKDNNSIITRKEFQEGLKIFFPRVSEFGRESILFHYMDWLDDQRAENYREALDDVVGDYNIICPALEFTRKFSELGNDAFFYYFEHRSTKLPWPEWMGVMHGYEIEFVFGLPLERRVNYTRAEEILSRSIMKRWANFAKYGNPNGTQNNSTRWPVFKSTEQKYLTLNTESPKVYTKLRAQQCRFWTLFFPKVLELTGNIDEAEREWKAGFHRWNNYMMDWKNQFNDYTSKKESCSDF

Compound	IC50 (equine serum BuChE) [µM]	IC50 [1] [µM]	AChE IC50 [1]
Cn1ncc2c3sc(N)nc3ccc21 [5a, 6-Methyl-6H-thiazolo[5,4-e]indazol-2-amine]	> 50	> 50	
CCn1ncc2c3sc(N)nc3ccc21 [5b, 6-Ethyl-6H-thiazolo[5,4-e]indazol-2-amine]	> 50	> 50	
Cn1ncc2ccc3nc(N)sc3c21 [5c, 1-Methyl-1H-thiazolo[4,5-g]indazol-7-amine]	> 50	> 50	
CCn1ncc2ccc3nc(N)sc3c21 [5d, 1-Ethyl-1H-thiazolo[4,5-g]indazol-7-amine]	> 50	> 50	
Cn1nc(Cl)c2c3sc(N)nc3ccc21 [5e, 8-Chloro-6-methyl-6H-thiazolo[5,4-e]indazol-2-amine]	> 50	> 50	
Cn1ncc2c3sc(NC(=O)CCl)nc3ccc21 [6a, 2-Chloro-N-(6-methyl-6H-thiazolo[5,4-e]indazol-2-yl)acetamide]	> 50	14.3 ± 2.62	
CCn1ncc2c3sc(NC(=O)CCl)nc3ccc21 [6b, 2-Chloro-N-(6-ethyl-6H-thiazolo[5,4-e]indazol-2-yl)acetamide]	> 50	13.2 ± 2.71	
Cn1nc(Cl)c2c3sc(NC(=O)CCl)nc3ccc21 [6c, 2-Chloro-N-(8-chloro-6-methyl-6H-thiazolo[5,4-e]indazol-2-yl)acetamide]	> 50	> 25	
Cn1ncc2c3sc(NC(=O)CN=[N+]=[N-])nc3ccc21 [7a, 2-Azido-N-(6-methyl-6H-thiazolo[5,4-e]indazol-2-yl)acetamide]	> 50	> 50	
CCn1ncc2c3sc(NC(=O)CN=[N+]=[N-])nc3ccc21 [7b, 2-Azido-N-(6-ethyl-6H-thiazolo[5,4-e]indazol-2-yl)acetamide]	> 50	0.54 ± 0.11	
Cn1nc(Cl)c2c3sc(NC(=O)CN=[N+]=[N-])nc3ccc21 [7c, 2-Azido-N-(8-chloro-6-methyl-6H-thiazolo[5,4-e]indazol-2-yl)acetamide]	> 50	2.26 ± 0.09	
Cn1ncc2c3sc(NC(=O)Cn4cc(-c5cc(C(F)(F)F)cc(C(F)(F)F)c5)nn4)nc3ccc21 [TI45a, 2-(4-(3,5-bis(Trifluoromethyl)phenyl)-1H-1,2,3-triazol-1-yl)-N-(6-methyl-6H-thiazolo[5,4-e]indazol-2-yl)acetamide]	> 50	> 50	
CCn1ncc2c3sc(NC(=O)Cn4cc(-c5cc(C(F)(F)F)cc(C(F)(F)F)c5)nn4)nc3ccc21 [TI45b, 2-(4-(3,5-bis(Trifluoromethyl)phenyl)-1H-1,2,3-triazol-1-yl)-N-(6-ethyl-6H-thiazolo[5,4-e]indazol-2-yl)acetamide]	> 50	0.071 ± 0.014	
Cn1nc(Cl)c2c3sc(NC(=O)Cn4cc(-c5cc(C(F)(F)F)cc(C(F)(F)F)c5)nn4)nc3ccc21 [TI45c, 2-(4-(3,5-bis(Trifluoromethyl)phenyl)-1H-1,2,3-triazol-1-yl)-N-(8-chloro-6-methyl-6H-thiazolo[5,4-e]indazol-2-yl)acetamide]	> 50	> 50	
Cn1ncc2c3sc(NC(=O)Cn4c5ccccc5c5ccccc54)nc3ccc21 [TI58a, 2-(9H-carbazol-9-yl)-N-(6-methyl-6H-thiazolo[5,4-e]indazol-2-yl)acetamide]	> 50	> 50	
CCn1ncc2c3sc(NC(=O)Cn4c5ccccc5c5ccccc54)nc3ccc21 [TI58b, 2-(9H-carbazol-9-yl)-N-(6-ethyl-6H-thiazolo[5,4-e]indazol-2-yl)acetamide]	> 50	> 50	did not experimentally show any activity against AChE
Cn1nc(Cl)c2c3sc(NC(=O)Cn4c5ccccc5c5ccccc54)nc3ccc21 [TI58c, 2-(9H-carbazol-9-yl)-N-(8-chloro-6-methyl-6H-thiazolo[5,4-e]indazol-2-yl)acetamide]	> 50	> 50	
